Experimental data reported in patent US11986450B2, “Methods and compositions for treating infection and inflammation with selenocyanate” (National Jewish Health, priority 2017, dated 2024).

Experiments:
[1] = test system: clinical isolate of M. abscessus; assay: NTM killing, exposure to GOX, LPO, SeCN components; assay type: cell-based; details: plated on LB agar immediately after mixing
Description: FIGS. 24A and 24B show —SeCN-mediated killing of NTM requires LPO, but not GOX, while LPO/—SeCn has no effect upon B. Cepacia. […] All conditions with GOX also contained dextrose, the required substrate of GOX for H2O2 production.
Susceptibility of NTM species to both HOSCN- and HOSeCN-mediated killing. […] Given the shorter amount of time necessary for —SeCN-mediated killing of NTM compared to other bacteria species (FIGS. 24A and 24B), the possibility that the mechanism responsible for —SeCN-mediated killing of NTM was unique compared to —SCN-mediated killing of NTM and —SeCN-mediated killing of other species is determined. […] Since killing required LPO, the inventors believe that endogenous H2O2 production by NTM provided the H2O2 required for the generation of HOSeCN via LPO and —SeCN.

[2] = test system: Pseudomonas aeruginosa (PA) lung infection
Description: FIGS. 8A-8C. […] Wild type (WT) and beta-subunit of the epithelial Na(+) channel (βENaC) Tg Mice were nebulized with 0.5% ^−SCN twice-daily starting 24 hrs post infection. Mice were sacrificed 72 hrs post infection and lung burden of PA was assessed (FIG. 8A), BAL neutrophil counts (FIG. 8B), and BALF KC cytokine (IL-8 analog) levels determined (FIG. 8C).
The inventors have shown critical in vivo proof of principle with inhaled ^−SCN in PA-infected mice (Chandler, J. D., et al. (2015); Chandler, J. D., et al. (2013) Nebulized thiocyanate improves lung infection outcomes in mice. Br J Pharmacol 169, 1166-1177). […] Mice that overexpress a sodium channel, βENaC, have been developed that spontaneously develop lung inflammation and mucous obstructions similar to that reported in subjects with CF (Mall, M., et al. (2004) Increased airway epithelial Na+ absorption produces cystic fibrosis-like lung disease in mice. Nat Med 10, 487-493). This model is useful to differentiate the antimicrobial effect of an agent from its potential anti-inflammatory effects.

[3] = aerosolized isotonic 0.5% (w/v) solution in PBS for 30 minutes
Description: Mice (C57B6) were exposed to an aerosolized isotonic 0.5% (w/v) ^−SCN solution in PBS for 30 minutes (0 hr) and ^−SCN levels in the ELF and serum were determined by HPLC-EC at various time points.

[4] = test system: Human peripheral blood neutrophils activated with PMA; details: 20 ng/ml PMA, 200 μM thiocyanate
Description: Cytotoxicity was assessed by measuring lactate dehydrogenase (LDH) release.

[5] = test system: macrophage (J774A.1.) cells; details: 100 μM HOCl, 400 μM SCN, 15 minutes, viability after 6 hrs
Description: Cells were exposed to 100 μM HOCl and/or 400 μM ^−SCN in PBS for 15 minutes, washed and then placed in fresh media for 6 hrs before viability assessment with flow cytometry (FIG. 7A).

[6] = nebulized 0.5%, twice daily, started 1 day after infection, 72 hours

SMILES: N#CS [SCN, thiocyanate]
- Killing of NTM with LPO, without GOX [1]: did not kill NTM
- BAL neutrophil cell counts ([2]; mouse, in vivo): decreased
- Lung CFU PA burden ([2]; mouse, in vivo): lower lung CFU PA burden
- BAL levels of KC (IL-8 analog) [2, 6]: decreased
- Body weight loss [2, 6]: less body weight loss
- Lung pyocyanin levels [2, 6]: decreased lung pyocyanin levels
- ELF SCN levels [3]: high ELF ^−SCN levels
- Tolerability of inhaled SCN [3]: well tolerated
- Cytoprotection in activated neutrophils [4]: cytoprotective
- Protection from HOCl-mediated necrosis [5]: protects macrophage (J774A.1.) cells from HOCl-mediated necrosis
